Tests used:
Format in all cases: physicochemical
[1] = Solubility in water at 25° C.
[2] = Interfacial tension, Du Nouys ring tensiometer (Example 14), interface with air; settings: 1% by weight solution, neutral pH (5 M NaOH)
Description: (§1) Surfactant molecules were tested for their ability to decrease the surface tension across the aqueous-organic interface.

[3] = Viscosity of 70:30 heavy oil to water mixture, Brookfield rheometer (Example 16)
Description: The mixture was gently stirred until it was observed it achieved a single liquid phase. Previously, the viscosity of the neat heavy oil sample was measured at 3431 cP using a Brookfield DVIII+ Rheometer. […] Next, 1 mL of 10 M HCl was added and the mixture was stirred gently, while observing phase separation of the oil and water.

[4] = Interfacial tension, Du Nouys ring tensiometer (Example 14), interface with ISOPAR M; settings: 1% by weight solution, neutral pH (5 M NaOH)
Description: as §1

[5] = Interfacial tension, Du Nouys ring tensiometer (Example 14), interface with light crude oil; settings: 1% by weight solution, neutral pH (5 M NaOH); light crude oil API=37.4°
Description: as §1

| solubility in water (in words) [1] | IFT w/air [2] [mN/m] | viscosity of the 70:30 oil to water mixture ([3]; 105 mL heavy oil + 45 mL 1% surfactant solution, neat heavy oil 3431 cP) [cP] | IFT w/ISOPAR [4] [mN/m] | IFT w/Crude Oil [5] [mN/m] | Compound | viscosity of oil decanted after phase separation with HCl ([3]; after addition of 1 mL of 10 M HCl to the 70:30 mixture) |
| --- | --- | --- | --- | --- | --- | --- |
| very limited solubility in water | – | – | – | – | CCCCCC/C=C/CC(CC(=O)OCC(C)(C)COC(=O)CC(C/C=C/CCCCCC)C(=O)O)C(=O)O (stereo not drawn) [Example 2] | – |
| – | 28.68 | 100.2 | 0.09 | <0.01 | 2-(nonen-1-yl)succinic acid mono (2-cyclohexylethyl) ester [Example 3] | same viscosity measurement as the untreated heavy oil sample |

From US8969612B2, “Low interfacial tension surfactants for petroleum applications” (Soane Energy, LLC, priority 2009, dated 2015)
